Experimental findings from ChEMBL document CHEMBL3727346, “6-(pyridinyl)-4-pyrimidone derivates as tau protein kinase 1 inhibitors” (2011) are described below.

Activity calls are given as the source filed them. The rule behind the calls is not given here.

The first experiment deals with Glycogen synthase kinase-3 beta splice variant X1 (Bos taurus) (UniProt A0A059UE90). Kind of experiment: (§1) Inhibition of bovine cerebral TPK1 assessed as reduction in P-GS1 phosphorylation using [32gammaP]ATP incubated for 2 hrs by liquid scintillation counting method.
For the compound `CCCCOc1ccc(-c2ccc([C@H]3CN(c4nc(-c5ccncc5F)cc(=O)n4C)CCN3)cc2)cc1`, the inhibition result was “Active”.

For `CN1CCN(CC(=O)Nc2ccc([C@H]3CN(c4nc(-c5ccncc5F)cc(=O)n4C)CCO3)cc2)CC1`, the inhibition entry is “Active”.

For the compound `Cn1c(N2CCO[C@@H](c3ccc(Nc4ccncc4)cc3)C2)nc(-c2ccncc2F)cc1=O`, the inhibition entry was “Active”.

As for `CC(=O)N[C@H]1CCN(c2ccc([C@H]3CN(c4nc(-c5ccncc5F)cc(=O)n4C)CCO3)cc2)C1`, the inhibition entry was “Active”.

Turning to `Cn1c(N2CCOC(c3ccc(Br)cc3)C2)nc(-c2ccncc2F)cc1=O` (centres undefined), the inhibition entry is “Active”.

On to `CN(C)S(=O)(=O)c1ccc([C@H]2CN(c3nc(-c4ccncc4F)cc(=O)n3C)CCO2)cc1`, for which the inhibition result was “Active”.

Consider `Cn1c(N2CCO[C@@H](c3ccc(N4CC[C@H](N5CCCCC5)C4)cc3)C2)nc(-c2ccncc2F)cc1=O`, for which the inhibition entry was “Active”.

Regarding `COc1ccc(C#N)cc1[C@H]1CN(c2nc(-c3ccncc3F)cc(=O)n2C)CCO1`, the inhibition result is “Active”.

With `CC(=O)c1ccc([C@H]2CN(c3nc(-c4ccncc4F)cc(=O)n3C)CCO2)cc1`, the inhibition entry is “Active”.

In the case of `Cn1c(N2CCO[C@@H](c3ccc(OCCCN4CCCC4)cc3)C2)nc(-c2ccncc2F)cc1=O`, the inhibition result is “Active”.

Consider `Cn1c(N2CCNC(c3ccc(N4CCNCC4)cc3)C2)nc(-c2ccncc2F)cc1=O` (centres undefined), for which the inhibition entry is “Active”.

With `CN(c1ccc([C@H]2CN(c3nc(-c4ccncc4F)cc(=O)n3C)CCO2)cc1)C1CCCCCC1`, the inhibition entry is “Active”.

Consider `CCN(CC)Cc1ccc([C@H]2CN(c3nc(-c4ccncc4F)cc(=O)n3C)CCO2)cc1`, for which the inhibition result was “Active”.

In the case of `Cn1c(N2CCO[C@@H](c3ccc(N4CCOC4=O)cc3)C2)nc(-c2ccncc2F)cc1=O`, the inhibition result was “Active”.

For `Cn1c(N2CCN[C@@H](c3ccc(N4CCC(O)C4)cc3)C2)nc(-c2ccncc2F)cc1=O` (some centres undefined), the inhibition entry is “Active”.

Consider `Cn1c(N2CCN[C@@H](c3ccc(-c4ccc(OCC5CC5)cc4)cc3)C2)nc(-c2ccncc2F)cc1=O`, for which the inhibition entry was “Active”.

As for `Cn1c(N2CCO[C@@H](c3ccc(NC4CCCCC4)cc3)C2)nc(-c2ccncc2F)cc1=O`, the inhibition entry is “Active”.

For the compound `Cn1c(N2CCO[C@@H](c3ccc(C(=O)N4CCCCC4)cc3)C2)nc(-c2ccncc2F)cc1=O`, the inhibition entry was “Active”.

With `COc1ccc(-c2ccc([C@H]3CN(c4nc(-c5ccncc5F)cc(=O)n4C)CCN3)cc2)c(OC)c1`, the inhibition entry is “Active”.

For the compound `Cn1c(N2CCO[C@@H](c3ccc(NC(=O)OCc4ccccc4)cc3)C2)nc(-c2ccncc2F)cc1=O`, the inhibition entry was “Active”.

As to `Cn1c(N2CCO[C@@H](c3ccc(N4CCNC4=O)cc3)C2)nc(-c2ccncc2F)cc1=O`, the inhibition entry is “Active”.

Turning to `Cn1c(N2CCO[C@@H](c3ccc(NC(=S)Nc4cccnc4)cc3)C2)nc(-c2ccncc2F)cc1=O`, the inhibition entry was “Active”.

As for `Cn1c(N2CCO[C@@H](c3ccc(OCCCN4CCCCC4)cc3)C2)nc(-c2ccncc2F)cc1=O`, the inhibition entry was “Active”.

Take `CC(C)c1ccc(-c2ccc([C@H]3CN(c4nc(-c5ccncc5F)cc(=O)n4C)CCN3)cc2)cc1`: the inhibition entry is “Active”.

Consider `Cn1c(N2CCN[C@@H](c3ccc(N4CCOCC4)cc3)C2)nc(-c2ccncc2F)cc1=O`, for which the inhibition entry is “Active”.

`Cn1c(N2CCO[C@@H](c3ccc(N(C4CCCCC4)S(=O)(=O)c4ccccc4)cc3)C2)nc(-c2ccncc2F)cc1=O`: the inhibition result is “Active”.

Take `Cn1c(N2CCN[C@@H](c3ccc(-c4ccc(C(F)(F)F)cc4)cc3)C2)nc(-c2ccncc2F)cc1=O`: the inhibition result is “Active”.

`Cn1c(N2CCN[C@@H](c3ccc(-c4ccc(S(C)(=O)=O)cc4)cc3)C2)nc(-c2ccncc2F)cc1=O`: the inhibition result was “Active”.

With `Cn1c(N2CCO[C@@H](c3ccc(N4CC[C@H](N5CCOCC5)C4)cc3)C2)nc(-c2ccncc2F)cc1=O`, the inhibition entry is “Active”.

Turning to `CN(C)[C@H]1CCN(c2ccc([C@H]3CN(c4nc(-c5ccncc5F)cc(=O)n4C)CCN3)cc2)C1`, the inhibition entry was “Active”.

As to `COc1ccc(NC(=O)C2CC2)cc1[C@H]1CN(c2nc(-c3ccncc3F)cc(=O)n2C)CCO1`, the inhibition entry was “Active”.

In the case of `CN(C)C1CCN(c2ccc([C@H]3CN(c4nc(-c5ccncc5F)cc(=O)n4C)CCO3)cc2)CC1`, the inhibition entry is “Active”.

As for `CN(c1ccc([C@H]2CN(c3nc(-c4ccncc4F)cc(=O)n3C)CCO2)cc1)C1CCCC1`, the inhibition entry is “Active”.

For `Cn1c(N2CCO[C@@H](c3ccc(N4CC[C@@H](N5CCOCC5)C4)cc3)C2)nc(-c2ccncc2F)cc1=O`, the inhibition result is “Active”.

Regarding `COc1ccc(-c2ccc([C@H]3CN(c4nc(-c5ccncc5F)cc(=O)n4C)CCN3)cc2)cc1OC`, the inhibition entry was “Active”.

In the case of `COCCN(c1ccc([C@H]2CN(c3nc(-c4ccncc4F)cc(=O)n3C)CCO2)cc1)C1CCCCC1`, the inhibition entry was “Active”.

For the compound `Cn1c(N2CCO[C@@H](c3ccc(N4CCC(O)C4)cc3)C2)nc(-c2ccncc2F)cc1=O` (some centres undefined), the inhibition result is “Active”.

Regarding `CC(=O)N(C)[C@@H]1CCN(c2ccc([C@H]3CN(c4nc(-c5ccncc5F)cc(=O)n4C)CCO3)cc2)C1`, the inhibition result was “Active”.

Take `CCN(CC)CCCOc1ccc([C@H]2CN(c3nc(-c4ccncc4F)cc(=O)n3C)CCO2)cc1`: the inhibition entry is “Active”.

As for `Cn1c(N2CCO[C@@H](c3cccc(N)c3)C2)nc(-c2ccncc2F)cc1=O`, the inhibition entry was “Active”.

On to `C[C@@H]1CN(c2ccc([C@H]3CN(c4nc(-c5ccncc5F)cc(=O)n4C)CCN3)cc2)C[C@H](C)N1`, for which the inhibition result was “Active”.

As for `Cn1c(N2CCO[C@@H](c3ccc(OCCN4CCCCC4)cc3)C2)nc(-c2ccncc2F)cc1=O`, the inhibition entry is “Active”.

On to `CN(C)C1CCN(c2ccc([C@H]3CN(c4nc(-c5ccncc5F)cc(=O)n4C)CCN3)cc2)CC1`, for which the inhibition result was “Active”.

Take `COc1ccc(C2(O)CCN(C)CC2)cc1[C@H]1CN(c2nc(-c3ccncc3F)cc(=O)n2C)CCO1`: the inhibition entry is “Active”.

In another experiment the target is Glycogen synthase kinase-3 beta splice variant X1 (Bos taurus, UniProt A0A059UE90). Described as §1.
As a reminder, the IC50 is the point on the concentration scale where inhibition reaches its midpoint. With `Cn1c(N2CCO[C@@H](c3ccc(NC(=O)C(C)(C)C)cc3)C2)nc(-c2ccncc2F)cc1=O`, the half-inhibitory concentration (IC50) worked out at 4.2 nM.

Take `COc1ccc(NC(C)=O)cc1[C@H]1CN(c2nc(-c3ccncc3F)cc(=O)n2C)CCO1`: the IC50 was determined as 0.48 nM.

Turning to `COc1ccc(-c2ccc([C@H]3CN(c4nc(-c5ccncc5F)cc(=O)n4C)CCN3)cc2)cc1`, the IC50 amounted to 0.73 nM.

As to `Cn1c(N2CCN[C@@H](c3ccc(N4CCCCC4)cc3)C2)nc(-c2ccncc2F)cc1=O`, the 50% inhibitory concentration (IC50) was 3.7 nM.

With `Cn1c(N2CCN[C@@H](c3ccc(-c4ncon4)cc3)C2)nc(-c2ccncc2F)cc1=O`, the IC50 amounted to 4.8 nM.

Regarding `CC(C)Oc1ccc(-c2ccc([C@H]3CN(c4nc(-c5ccncc5F)cc(=O)n4C)CCN3)cc2)cc1`, the 50% inhibitory concentration (IC50) stood at 1.2 nM.

For the compound `CN(C)CC(=O)Nc1ccc([C@H]2CN(c3nc(-c4ccncc4F)cc(=O)n3C)CCO2)cc1`, the IC50 came to 0.27 nM.

`Cn1c(N2CCOC(c3ccc4c(c3)CCC(=O)N4)C2)nc(-c2ccncc2F)cc1=O` (racemic): the IC50 is 1.2 nM.

With `CN(C)C(=O)Nc1ccc([C@H]2CN(c3nc(-c4ccncc4F)cc(=O)n3C)CCO2)cc1`, the IC50 is 11 nM.

`CC(=O)Nc1cccc([C@H]2CN(c3nc(-c4ccncc4F)cc(=O)n3C)CCO2)c1`: the IC50 was found to be 4.1 nM.

For `CN(c1ccc([C@H]2CN(c3nc(-c4ccncc4F)cc(=O)n3C)CCO2)cc1)[C@@H]1CCOC1`, the IC50 came out at 3.9 nM.

Consider `Cn1c(N2CCO[C@@H](c3cc4ccccc4o3)C2)nc(-c2ccncc2F)cc1=O`, for which the half-maximal inhibitory concentration (IC50) was found to be 7.9 nM.

As to `Cn1c(N2CCO[C@@H](c3ccc(N4CCC(N5CCCC5)CC4)cc3)C2)nc(-c2ccncc2F)cc1=O`, the IC50 came out at 1.7 nM.

On to `Cn1c(N2CCO[C@@H](c3ccc(OCCN4CCOCC4)cc3)C2)nc(-c2ccncc2F)cc1=O`, for which the 50% inhibitory concentration (IC50) was found to be 1.1 nM.

Regarding `Cn1c(N2CCO[C@@H](c3ccc(C(=O)N4CCOCC4)cc3)C2)nc(-c2ccncc2F)cc1=O`, the IC50 was 7.4 nM.

Regarding `Cc1cc(C2CN(c3nc(-c4ccncc4F)cc(=O)n3C)CCO2)ccc1Br` (centres undefined), the half-inhibitory concentration (IC50) was 0.51 nM.

In the case of `COC(=O)Nc1ccc([C@H]2CN(c3nc(-c4ccncc4F)cc(=O)n3C)CCO2)cc1`, the IC50 stood at 1.2 nM.

Consider `Cn1c(N2CCN[C@@H](c3ccc(N4CCN(c5ccccc5)CC4)cc3)C2)nc(-c2ccncc2F)cc1=O`, for which the half-maximal inhibitory concentration (IC50) was determined as 0.53 nM.

In the case of `CC(=O)N1CCC(Oc2ccc([C@H]3CN(c4nc(-c5ccncc5F)cc(=O)n4C)CCO3)cc2)CC1`, the half-inhibitory concentration (IC50) is 6.4 nM.

As to `Cn1c(N2CCO[C@@H](c3ccc(NC(=O)C4CCCCC4)cc3)C2)nc(-c2ccncc2F)cc1=O`, the 50% inhibitory concentration (IC50) was 2.2 nM.

Regarding `Cc1nc(-c2ccc([C@H]3CN(c4nc(-c5ccncc5F)cc(=O)n4C)CCN3)cc2)no1`, the IC50 turned out to be 2.9 nM.

On to `CN(c1ccc([C@H]2CN(c3nc(-c4ccncc4F)cc(=O)n3C)CCO2)cc1)c1ccccn1`, for which the half-maximal inhibitory concentration (IC50) amounted to 5.4 nM.

As to `Cn1c(N2CCO[C@@H](c3ccc(N[C@@H]4CCOC4)cc3)C2)nc(-c2ccncc2F)cc1=O`, the IC50 came out at 2.7 nM.

Take `Cn1c(N2CCO[C@@H](c3ccc(N)cc3)C2)nc(-c2ccncc2F)cc1=O`: the IC50 was 2.9 nM.

On to `Cn1c(N2CCO[C@@H](c3c(F)cccc3Cl)C2)nc(-c2ccncc2F)cc1=O`, for which the IC50 amounted to 1.4 nM.
